Assay results: publication PMC5753767 (Bioorganic & medicinal chemistry letters, 2017)
“Also recorded” adds a separate entry of the source.

What was measured:
P. falciparum Dd2 = type: cell-based, Plasmodium falciparum; details: chloroquine-resistant Dd2 strain of P. falciparum
Caco-2 cancer cell line = details: cited from earlier work
HT-29 cancer cell line = details: cited from earlier work
A2780 ovarian cells = test: Antiproliferative activity against A2780 ovarian cells; type: cell-based

| SMILES | Antiplasmodial activity (in words) (P. falciparum Dd2) | Cytotoxicity IC50 Caco-2 (Caco-2 cancer cell line) | Cytotoxicity IC50 HT-29 (HT-29 cancer cell line) | Activity against human A2780 cells (in words) (A2780 ovarian cells) | IC50 (Caco-2 cancer cell line; read-out: Cytotoxicity IC50 Caco-2, Caco-2 cancer cell line) | IC50 (HT-29 cancer cell line; read-out: Cytotoxicity IC50 HT-29, HT-29 cancer cell line) |
| --- | --- | --- | --- | --- | --- | --- |
| COC1=CC(=O)[C@@]23CCN(Cc4c2cc2c(c4OC)OCO2)[C@@H]3C1 [Compound 2, distichamine] | little inhibitory activity |  |  |  |  |  |
| COc1c2c(cc3c1OCO3)[C@]13C=C[C@H](OC)C[C@H]1[N@](C2)C[C@H]3OC(C)=O [Compound 3, 11-O-acetylambelline] |  | inactive | inactive |  |  |  |
| COc1c2c(cc3c1OCO3)[C@]13C=C[C@H](OC)C[C@H]1[N@](C2)C[C@H]3O [Compound 4, ambelline] | moderate to good antiplasmodial activity |  |  | lack of activity |  |  |
| CC(=O)O[C@@H]1CC=C2CCN3Cc4cc5c(cc4[C@H]1[C@@H]23)OCO5 [Compound 5, acetylcaranine] | strong antiplasmodial activity; also recorded: moderate to good antiplasmodial activity |  |  | lack of activity | 29.5 µM | 19.2 µM |
